# Reference: patent US20110207660A1, “PHARMACEUTICAL FORMULATIONS OF AN HCV PROTEASE INHIBITOR IN A SOLID MOLECULAR DISPERSION” (Schering Corporation, priority 2008, published 2011)
# Experiments:
# [1] = Clinical Study 2: once-a-day 300 mg Compound I with 100 mg ritonavir for 10 days, healthy human subjects, fed; conditions: in vivo, steady state, Day 10, formulation G tablets 3×100 mg QD + 100 mg ritonavir QD, 8 healthy human subjects, read-out: Cmin Range
# Procedure: The pharmacokinetic profile of Compound I following once-a-day oral administration of 300 mg Compound I in a formulation of the present invention in tablet form (specifically exemplary formulation G described in Table 3A, 3×100 mg, QD) in combination with 100 mg ritonavir (RTV, 1×100 mg, QD) for 10-days to healthy human subjects under fed conditions (i.e., following a standard meal) was determined. […] Blood was collected from each subject pre-dose (on Days 7, 8, and 9), as well as 0.5, 1, 1.5, 2, 3, 4, 5, 6, 7, 8, 10, 12, 16, and 24 hr post-dose (on Day 10) for determining the concentration of Compound I in the plasma and to calculate the pharmacokinetic parameters for each formulation.
# [2] = in vitro IC90 of Compound I; conditions: reference line in FIGS. 5A and 5B
# [3] = Biopharmaceutics Classification System class; type: physicochemical; conditions: low solubility and low permeability
smiles,measurement,setting,value
CCCC[C@H](NC(=O)[C@@H]1[C@@H]2[C@H](CN1C(=O)[C@@H](NC(=O)NC1(CS(=O)(=O)C(C)(C)C)CCCCC1)C(C)(C)C)C2(C)C)C(=O)C(=O)NC1CC1 [Compound I],concentration at 10 days,[1],167 to 426 ng/mL
same,in vitro IC90,[2],28 ng/mL
same,Biopharmaceutics Classification System class,[3],Class IV
